Measured values as given in PMC2950128, “Protein Evolution by Molecular Tinkering: Diversification of the Nuclear Receptor Superfamily from a Ligand-Dependent Ancestor” (PLoS Biology, 2010).

Target: T1, AqNR1-LBD (Amphimedon queenslandica, UniProt B1A9Z2)
T1 construct: fusion kept for serum incubation), E. coli BL21(DE3) pLysS
Test: lipid extraction and negative-ion ESI/MS of purified LBD
Assay type: binding
Conditions: co-purified from E. coli (also after complete serum); identified by mass as 18:0, chain isomer not told

T1 sequence (B1A9Z2 entry or part of it): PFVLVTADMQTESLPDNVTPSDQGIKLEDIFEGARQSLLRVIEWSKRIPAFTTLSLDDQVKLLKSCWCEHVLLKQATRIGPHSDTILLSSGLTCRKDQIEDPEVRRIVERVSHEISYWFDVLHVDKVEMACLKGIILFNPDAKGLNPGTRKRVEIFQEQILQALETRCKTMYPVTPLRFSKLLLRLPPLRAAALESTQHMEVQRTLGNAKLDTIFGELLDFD

In the case of `CCCCCCCCCCCCCCCCCC(=O)O` [18∶0 fatty acid], the “lipid extraction and negative-ion ESI/MS of purified LBD” value is reported as “bound an array of bacterial free fatty acids (FAs)”.
